NCCCCCCN
solubility (mole fraction) (in 1,4-dioxane, 283.15 K): 0.135
solubility (mole fraction) (in 1,4-dioxane, 288.15 K): 0.194
solubility (mole fraction) (in 1,4-dioxane, 293.15 K): 0.267
solubility (mole fraction) (in 1,4-dioxane, 298.15 K): 0.348
solubility (mole fraction) (in 1,4-dioxane, 303.15 K): 0.467
solubility (mole fraction) (in cyclohexane, 278.15 K): 0.0071
solubility (mole fraction) (in cyclohexane, 283.15 K): 0.0092
solubility (mole fraction) (in cyclohexane, 288.15 K): 0.0126
solubility (mole fraction) (in cyclohexane, 293.15 K): 0.0187
solubility (mole fraction) (in cyclohexane, 298.15 K): 0.0309
solubility (mole fraction) (in cyclohexane, 303.15 K): 0.053
solubility (mole fraction) (in isobutanol, 278.15 K): 0.193
solubility (mole fraction) (in isobutanol, 283.15 K): 0.236
solubility (mole fraction) (in isobutanol, 288.15 K): 0.288
solubility (mole fraction) (in isobutanol, 293.15 K): 0.351
solubility (mole fraction) (in isobutanol, 298.15 K): 0.427
solubility (mole fraction) (in isobutanol, 303.15 K): 0.521
solubility (mole fraction) (in n-butanol, 278.15 K): 0.35
solubility (mole fraction) (in n-butanol, 283.15 K): 0.389
solubility (mole fraction) (in n-butanol, 288.15 K): 0.448
solubility (mole fraction) (in n-butanol, 293.15 K): 0.508
solubility (mole fraction) (in n-butanol, 298.15 K): 0.584
solubility (mole fraction) (in n-butanol, 303.15 K): 0.652
solubility (mole fraction) (in n-hexane, 278.15 K): 0.0103
solubility (mole fraction) (in n-hexane, 283.15 K): 0.0149
solubility (mole fraction) (in n-hexane, 288.15 K): 0.018
solubility (mole fraction) (in n-hexane, 293.15 K): 0.0268
solubility (mole fraction) (in n-hexane, 298.15 K): 0.0449
solubility (mole fraction) (in n-hexane, 303.15 K): 0.0729
solubility (mole fraction) (in n-propanol, 278.15 K): 0.315
solubility (mole fraction) (in n-propanol, 283.15 K): 0.354
solubility (mole fraction) (in n-propanol, 288.15 K): 0.391
solubility (mole fraction) (in n-propanol, 293.15 K): 0.431
solubility (mole fraction) (in n-propanol, 298.15 K): 0.485
solubility (mole fraction) (in n-propanol, 303.15 K): 0.552
solubility (mole fraction) (in toluene, 278.15 K): 0.132
solubility (mole fraction) (in toluene, 283.15 K): 0.161
solubility (mole fraction) (in toluene, 288.15 K): 0.209
solubility (mole fraction) (in toluene, 293.15 K): 0.259
solubility (mole fraction) (in toluene, 298.15 K): 0.334
solubility (mole fraction) (in toluene, 303.15 K): 0.434

Reference: BigSolDB 2.1
